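Growth conditions: 96-well plates. Treatment: test compound, 48 hours, 5 concentrations. Analysis: linear interpolation between bracketing concentrations; unreached endpoints set to highest concentration. The concentration for 50% growth inhibition is given as GI50.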 Active and inactive are the calls of the source. Rule as the data show it: active = GI50 up to about 1.1 µM and inactive = higher.
Assays:
Test in all cases: growth of human tumour cells (NCI), 48 h
CAKI-1 = system: CAKI-1
OVCAR-8 = system: OVCAR-8
HT-29 = system: HT-29
SK-OV-3 = system: SK-OV-3
RXF 393 = system: RXF 393
NCI-H522 = system: NCI-H522
HOP-92 = system: HOP-92
RPMI-8226 = system: RPMI-8226
SF-268 = system: SF-268
IGROV-1 = system: IGROV-1
OVCAR-4 = system: OVCAR-4
KM12 = system: KM12
ACHN = system: ACHN
DMS-273 = system: DMS-273
UO-31 = system: UO-31
HCT-116 = system: HCT-116
OVCAR-5 = system: OVCAR-5
SF-295 = system: SF-295
LXFL 529 = system: LXFL 529
SW-620 = system: SW-620
NCI-H226 = system: NCI-H226
SK-MEL-5 = system: SK-MEL-5
K562 = system: K562
LOX IMVI = system: LOX IMVI
M19-MEL = system: M19-MEL
U-251 = system: U-251
UACC-62 = system: UACC-62
NCI-H460 = system: NCI-H460
NCI-H23 = system: NCI-H23
M14 = system: M14
SNB-75 = system: SNB-75
SK-MEL-2 = system: SK-MEL-2
HOP-62 = system: HOP-62
786-0 = system: 786-0
Malme-3M = system: Malme-3M
DMS-114 = system: DMS-114
TK-10 = system: TK-10
UACC-257 = system: UACC-257
SR = system: SR
SNB-78 = system: SNB-78
HCT-15 = system: HCT-15
SN12C = system: SN12C
SF-539 = system: SF-539
COLO 205 = system: COLO 205
DLD-1 = system: DLD-1
MOLT-4 = system: MOLT-4
A549 = system: A549
HOP-18 = system: HOP-18
SK-MEL-28 = system: SK-MEL-28

In the case of C=CC(Br)(CBr)CCC(Br)C(C)(C)Br (centres undefined), the GI50 (CAKI-1) is reported as 22.8 µM (inactive), the GI50 (OVCAR-8) is reported as 15.7 µM (inactive) and the GI50 (HT-29) is reported as 13.2 µM (inactive). The GI50 (SK-OV-3) was 19.4 µM (inactive), the GI50 (RXF 393) was 14.7 µM (inactive) and the GI50 (NCI-H522) was 15.8 µM (inactive). The GI50 (HOP-92) was 15.7 µM (inactive), the GI50 (RPMI-8226) was 2.79 µM (inactive) and the GI50 (SF-268) was 17.1 µM (inactive). For the same compound, the GI50 (IGROV-1) was 15.2 µM (inactive), the GI50 (OVCAR-4) was 17.1 µM (inactive) and the GI50 (KM12) was 9.14 µM (inactive). For the same compound, the GI50 (ACHN) was 12.7 µM (inactive), the GI50 (DMS-273) was 10.7 µM (inactive) and the GI50 (UO-31) was 15.2 µM (inactive). The GI50 (HCT-116) was 14.5 µM (inactive), the GI50 (OVCAR-5) was 18.5 µM (inactive) and the GI50 (SF-295) was 4.42 µM (inactive). The GI50 (LXFL 529) was 14.5 µM (inactive), the GI50 (SW-620) was 13.7 µM (inactive) and the GI50 (NCI-H226) was 18.1 µM (inactive). For the same compound, the GI50 (SK-MEL-5) was 14.5 µM (inactive), the GI50 (K562) was 17.3 µM (inactive) and the GI50 (LOX IMVI) was 12.4 µM (inactive). For the same compound, the GI50 (M19-MEL) was 14.3 µM (inactive), the GI50 (U-251) was 14.2 µM (inactive) and the GI50 (UACC-62) was 12 µM (inactive). For the same compound, the GI50 (NCI-H460) was 10.4 µM (inactive), the GI50 (NCI-H23) was 15.7 µM (inactive) and the GI50 (M14) was 15 µM (inactive). The GI50 (SNB-75) was 10.3 µM (inactive), the GI50 (SK-MEL-2) was 13.6 µM (inactive) and the GI50 (HOP-62) was 21 µM (inactive). For the same compound, the GI50 (786-0) was 12.9 µM (inactive), the GI50 (Malme-3M) was 16.6 µM (inactive) and the GI50 (DMS-114) was 11.6 µM (inactive). For the same compound, the GI50 (TK-10) was 16.4 µM (inactive), the GI50 (UACC-257) was 13.9 µM (inactive) and the GI50 (SR) was 3.81 µM (inactive). The GI50 (SNB-78) was 5.56 µM (inactive), the GI50 (HCT-15) was 16.5 µM and the GI50 (SN12C) was 15.6 µM (inactive). For the same compound, the GI50 (SF-539) was 15.9 µM (inactive), the GI50 (COLO 205) was 15 µM (inactive) and the GI50 (DLD-1) was 17.2 µM (inactive). For the same compound, the GI50 (MOLT-4) was 9.51 µM (inactive), the GI50 (A549) was 14.6 µM (inactive) and the GI50 (HOP-18) was 15.5 µM (inactive). For the same compound, the GI50 (SK-MEL-28) was 15.9 µM (inactive).

— ChEMBL document CHEMBL1201862, “PubChem BioAssay data set” (2004)
